Laboratory results taken from ChEMBL document CHEMBL1129658, “Syntheses and conformational analyses of glutamate analogs: 2-(2-carboxy-3-substituted-cyclopropyl)glycines as useful probes for excitatory amino acid receptors” (J Med Chem, 1996).

Assays:
[1] = pKa value by 1H NMR titration experiments; pK3; type: physicochemical
[2] = pKa value by 1H NMR titration experiments; pK2; type: physicochemical
[3] = pKa value by 1H NMR titration experiments; pK1; type: physicochemical
Rattus norvegicus [4] = species: Rattus norvegicus; test: Depolarizing potency in new born rat spinal cord; type: functional
[5] = Compound was tested for the Inhibition of forskolin-stimulated cAMP formation in the cultured spinal neurons; conditions: Rattus norvegicus
Rattus norvegicus [6] = species: Rattus norvegicus; test: Compound was tested for the inhibition of spinal reflex evoked by electrical stimulation of the dorsal root of new born rat

| Structure (SMILES) | pKa [1] | pKa [2] | pKa [3] | IC50 [5] [nM] | Relative potency (Rattus norvegicus [4]) | IC50 (Rattus norvegicus [6]) [nM] |
| --- | --- | --- | --- | --- | --- | --- |
| COC[C@H]1[C@H](C(=O)O)[C@H]1[C@H](N)C(=O)O | 10.2 | 4.2 | 2.3 | – | 0.1 | – |
| COC[C@@H]1[C@H](C(=O)O)[C@H]1[C@H](N)C(=O)O | 9.7 | 4 | 2.1 | – | 0.1 | – |
| COC[C@@H]1[C@H](C(=O)O)[C@@H]1[C@H](N)C(=O)O | 10.1 | 5.1 | 2 | – | 25 | – |
| Cc1onc(O)c1CC(N)C(=O)O [(R,S)-AMPA] | 10.1 | 5.2 | 2.1 | – | – | – |
| N[C@@H](CCC(=O)O)C(=O)O [GLUTAMIC ACID] | 9.7 | – | – | – | 1 | – |
| C=C(C)[C@H]1CN[C@H](C(=O)O)[C@H]1CC(=O)O [KAINIC ACID] | 10.1 | 4.3 | 2.1 | – | 100 | – |

Second part, led by results:

| pKa [1] | pKa [2] | pKa [3] | IC50 [5] [nM] | Structure (SMILES) | Relative potency (Rattus norvegicus [4]) | IC50 (Rattus norvegicus [6]) [nM] |
| --- | --- | --- | --- | --- | --- | --- |
| 9.7 | 4.2 | 1.9 | 100 | N[C@H](C(=O)O)[C@H]1C[C@@H]1C(=O)O | 6 | 700 |
| 10 | 4.6 | 2.5 | – | N[C@H](C(=O)O)[C@@H]1C[C@@H]1C(=O)O | 100 | – |
| 10 | 4.3 | 2.1 | – | N[C@H](C(=O)O)[C@H]1C[C@H]1C(=O)O | – | – |
| 9.5 | 4.2 | 2.2 | – | N[C@H](C(=O)O)[C@@H]1C[C@H]1C(=O)O | – | – |
| 9.6 | 4.7 | 2.2 | – | COC[C@H]1[C@H](C(=O)O)[C@@H]1[C@H](N)C(=O)O | 50 | – |
